# From ChEMBL document CHEMBL4699578, “Next generation quorum sensing inhibitors: Accounts on structure activity relationship studies and biological activities” (Bioorg Med Chem, 2020)
# What was measured:
# [1] = Inhibition of LuxR in Escherichia coli Top10 assessed as reduction in GFP production using 3OC6HSL as substrate by fluorescence method
# [2] = Inhibition of quorum sensing system in Pseudomonas aeruginosa PAO1 assessed as reduction in […] incubated for 18 hrs by congo red staining based assay
# [3] = Inhibition of quorum sensing system in Pseudomonas aeruginosa PAO1 assessed as reduction in pyocyanin production incubated for 8 hrs
# [4] = Inhibition of quorum sensing system in Stenotrophomonas maltophilia
# [5] = Inhibition of quorum sensing system in Pseudomonas aeruginosa
# [6] = Inhibition of quorum sensing system in Pseudomonas aeruginosa PAO1
# [7] = Inhibition of quorum sensing system in Staphylococcus aureus
# Escherichia coli [8] = assay: Inhibition of quorum sensing system in Escherichia coli MT102 at 250 uM measured after 15 hrs by fluorescence method relative to control
# Pseudomonas aeruginosa [9] = assay: Inhibition of quorum sensing system in Pseudomonas aeruginosa assessed as reduction in biofilm formation at 250 uM incubated for 24 hrs by crystal violet staining based method relative to control
# Escherichia coli [10] = assay: Inhibition of quorum sensing system in Escherichia coli assessed as reduction in biofilm formation at 250 uM incubated for 24 hrs by crystal violet staining based method relative to control
# Pseudomonas aeruginosa [11] = assay: Inhibition of quorum sensing system in Pseudomonas aeruginosa MH602 harboring lasB promoter measured at 250 uM every 30 mins over 22 hrs by fluorescence method relative to control; details: time hrs >22
# [12] = Inhibition of quorum sensing system in Chromobacterium violaceum CV026 assessed as reduction in violacein production incubated for 16 to 18 hrs by spot test method
# [13] = Antagonist activity at Pseudomonas aeruginosa PAO-JP2 LasR assessed as reduction in GFP production incubated for 6 hrs in presence of OdDHL by fluorescence method
# Pseudomonas aeruginosa [14] = assay: Antagonist activity at Pseudomonas aeruginosa PAO-JP2 LasR assessed as reduction in GFP production incubated for 6 hrs in presence of OdDHL by fluorescence method relative to control; set-up: scale not given: the % may be the effect or the level left; details: filed as antagonist
# [15] = Inhibition of quorum sensing system in Proteus mirabilis
# [16] = Antagonist activity at Vibrio fischeri quorum sensing system in presence of OHHL by bioluminescence method; set-up: species or system Aliivibrio fischeri
# [17] = Inhibition of quorum sensing system in Burkholderia cepacia
# [18] = Inhibition of quorum sensing system in Escherichia coli O157:H7
# [19] = test system: Vibrio campbellii ATCC BAA-1116; assay: Inhibition of quorum sensing system in Vibrio harveyi BB120 assessed as delay time for the onset of bioluminescence at 50 ug/ml measured every 10 mins after 5 min of double orbital stirring during 11 hrs 50 mins by luminescence method; details: dose 50.0 µg/ml, time 710.0 min
# [20] = target: T1, Transcriptional activator protein LuxR (Aliivibrio fischeri, UniProt P12746); assay: Antagonist activity at Vibrio fischeri luxR expressed in Escherichia coli NM522 in presence of 3-oxo-C6-HSL
# T1 sequence (P12746 whole entry): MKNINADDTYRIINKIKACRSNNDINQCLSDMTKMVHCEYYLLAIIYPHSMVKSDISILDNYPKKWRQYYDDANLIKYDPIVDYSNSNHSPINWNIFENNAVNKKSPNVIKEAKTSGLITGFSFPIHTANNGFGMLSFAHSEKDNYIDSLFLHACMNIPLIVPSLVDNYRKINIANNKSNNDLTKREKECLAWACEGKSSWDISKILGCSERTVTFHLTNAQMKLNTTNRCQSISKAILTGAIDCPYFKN
smiles,measurement,setting,value
CCOC(=O)/C=C1\CC(NCc2ccc(C)cc2)C(=O)N1Cc1ccc(C)cc1 (stereo unspecified),IC50,[1],50 µM
O=C1c2c(O)cc(O)cc2O[C@H](c2ccc(O)c(O)c2)[C@H]1O [(+)-TAXIFOLIN],IC50,[2],4000 µM
same,IC50,[3],4000 µM
O=C(/C=C/c1ccc(O)c(O)c1)O[C@@H]1C[C@](O)(C(=O)O)C[C@@H](O)[C@H]1O [CHLOROGENIC ACID],IC50,[4],22 µM
O=C(O)c1ccccc1O [SALICYLIC ACID],IC50,[5],1440 µM
COc1cc(/C=C/C(=O)CC(=O)/C=C/c2ccc(O)c(OC)c2)ccc1O [CURCUMIN],IC50,[6],3 µM
CC1=CC(=O)C(C(C)C)=CC1=O [THYMOQUINONE],IC50,[7],130 µM
C#CCNC(=O)C(=O)c1ccccc1NC(=O)CCl,inhibition,Escherichia coli [8],71.5%
same,inhibition,Pseudomonas aeruginosa [9],66.9%
C#CCNC(=O)C(=O)c1cc(Cl)ccc1NC(=O)CCl,inhibition,Escherichia coli [8],72.1%
same,inhibition,Escherichia coli [10],90.8%
same,inhibition,Pseudomonas aeruginosa [11],71.5%
O=C/C=C/c1ccccc1 [CINNAMALDEHYDE],IC50,[6],5900 µM
O=C(OC[C@H]1O[C@@H](OC(=O)c2cc(O)c(O)c(OC(=O)c3cc(O)c(O)c(O)c3)c2)[C@H](OC(=O)c2cc(O)c(O)c(OC(=O)c3cc(O)c(O)c(O)c3)c2)[C@@H](OC(=O)c2cc(O)c(O)c(OC(=O)c3cc(O)c(O)c(O)c3)c2)[C@@H]1OC(=O)c1cc(O)c(O)c(OC(=O)c2cc(O)c(O)c(O)c2)c1)c1cc(O)c(O)c(OC(=O)c2cc(O)c(O)c(O)c2)c1 [TANNIC ACID],IC50,[7],20 µM
O=C(O)/C=C/c1ccccc1 [CINNAMIC ACID],IC50,[5],1680 µM
Cc1ccc2c(c1)C(=O)C(=O)N2C(=O)CCl,inhibition,Pseudomonas aeruginosa [9],71.2%
Oc1cc(O)c2c(c1)O[C@H](c1ccc(O)c(O)c1)[C@@H](O)C2 [CIANIDANOL],IC50,[6],4000 µM
O=C1C[C@@H](c2ccc(O)c(O)c2)Oc2cc(O)cc(O)c21 [ERIODICTYOL],IC50,[2],4000 µM
same,IC50,[3],4000 µM
O=C(Nc1ccc(S(=O)(=O)N[C@H]2CCOC2=O)cc1)c1sccc1Cl,IC50,[12],6.19 µM
C#CCNC(=O)C(=O)c1cc(F)ccc1NC(=O)CCl,inhibition,Escherichia coli [8],73.5%
same,inhibition,Escherichia coli [10],89.5%
same,inhibition,Pseudomonas aeruginosa [11],71.5%
CCCCCCCCCNC(=O)CC(=O)c1ccco1,IC50,[13],1.2 µM
same,Activity,Pseudomonas aeruginosa [14],96%
Oc1ccc(/C=C/c2cc(O)cc(O)c2)cc1 [RESVERATROL],IC50,[15],65 µM
O=C(N[C@H]1CCOC1=O)SCc1ccc([N+](=O)[O-])cc1,IC50,[16],23 µM
C#CCNC(=O)C(=O)c1cc(Br)ccc1NC(=O)CCl,inhibition,Pseudomonas aeruginosa [9],66.5%
O=c1oc2c(O)c(O)cc3c(=O)oc4c(O)c(O)cc1c4c23 [ELLAGIC ACID],IC50,[17],132 µM
O=c1c(O)c(-c2ccc(O)c(O)c2)oc2cc(O)cc(O)c12 [QUERCETIN],IC50,[18],20 µM
O=C1C(=O)N(C(=O)CCl)c2ccccc21,inhibition,Escherichia coli [10],87.9%
C[C@H]1CC[C@]2(C)C(=O)CCC[C@H]2[C@]1(C)CC1=C(O)C(=O)CC1=O,TIME,[19],0.667 h
COC1=CC(=O)C(O)=C(C[C@]2(C)[C@@H](C)CC[C@]3(C)OC(=O)CCC[C@@H]23)C1=O,TIME,[19],0.667 h
O=C(N[C@H]1CCOC1=O)OCc1ccc([N+](=O)[O-])cc1,IC50,[16],22 µM
C=C1CCC[C@H]2[C@](C)(CC3=C(O)C(=O)C=C(O)C3=O)[C@@H](C)CC[C@]12C,TIME,[19],2.5 h
O=C1Cn2nncc2CNC(=O)C(=O)c2ccccc2NC(=O)Cn2nncc2CNC(=O)C(=O)c2ccccc2N1,inhibition,Pseudomonas aeruginosa [11],73.5%
Nc1ccccc1[N+](=O)[O-] [2-NITROANILINE],IC50,[20],85 µM
O=C1C[C@@H](c2ccc(O)cc2)Oc2cc(O)cc(O)c21 [NARINGENIN],IC50,[2],4000 µM
same,IC50,[3],4000 µM
C=C1CCC[C@H]2[C@](C)(Cc3c(O)c(OC(C)=O)cc(OC)c3OC(C)=O)[C@@H](C)CC[C@]12C,TIME,[19],1 h
O=c1c(O)c(-c2ccc(O)cc2)oc2cc(O)cc(O)c12 [KAEMPFEROL],IC50,[7],220 µM
